SMILES strings stand for the structures. Like-named read-outs stand apart in the source and are kept apart here.

Experiment [1] addresses T1, butyrylcholinesterase (horse-serum E.C 3.1.1.8) (Equus caballus, UniProt P81908).
T1 construct: butyrylcholinesterase (horse-serum E.C 3.1.1.8); purchased Sigma, Pakistan; host or cells: horse serum
Nature of the experiment: biochemical. To be noted: for BChE inhibition profile (in words): qualitative statement. The experiment is classed as biochemical. On the procedure: (§1) All other chemicals were of analytical grade and were used as such without further purification. Acetylcholinesterase (AChE) and butyrylcholinesterase (BChE) inhibiting activities were measured according to a modified spectrophotometric method used by Ellman et al.. Protocol and assay conditions were the same as described by Rocha et al..
(§2) The Acetylthiocholine iodide and butyrylthiocholine chloride were used as substrates for investigation of acetylcholinesterase and butyrylcholinesterase assays, respectively. The 5,5′-Dithiobis[2-nitrobenzoic-acid] (DTNB) was used for the measurement of cholinesterase activity. The 0.2 mM DTNB in 62 mM sodium phosphate buffer (pH 8.0, 880 µL), test compound solution (40 µL) and acetylcholinesterase or butyrylcholinesterase solution (40 µL) were mixed and incubated for 15 minutes (25°C). The reaction was then initiated by the addition of acetylthiocholine or butyrylthiocholine (40 µL), respectively. […] All the reactions were performed in triplicate using a BMS spectrophotometer (USA). […] The final concentration of DMSO in the reaction mixture was maintained at 6%.

Experiment [2] addresses T2, Acetylcholinesterase (EC 3.1.1.7) (Homo sapiens, UniProt P22303).
T2 construct: purchased Sigma, Pakistan
The experiment can be described thus: biochemical. Type of experiment: biochemical. The settings on record: for IC50: read-out: AChE ± SEM (IC50); for AChE inhibition profile (in words): qualitative statement. As for the experimental part: as §1, §2

[3] abbreviates: butyrylthiocholine chloride substrate, DTNB, pH 8.0, 25°C, 412 nm, value ± SEM, read-out: BChE ± SEM (IC50).
Where [4] appears, read: acetylthiocholine iodide substrate, DTNB, pH 8.0, 25°C, 412 nm, value ± SEM.

T2 sequence (P22303 32-614): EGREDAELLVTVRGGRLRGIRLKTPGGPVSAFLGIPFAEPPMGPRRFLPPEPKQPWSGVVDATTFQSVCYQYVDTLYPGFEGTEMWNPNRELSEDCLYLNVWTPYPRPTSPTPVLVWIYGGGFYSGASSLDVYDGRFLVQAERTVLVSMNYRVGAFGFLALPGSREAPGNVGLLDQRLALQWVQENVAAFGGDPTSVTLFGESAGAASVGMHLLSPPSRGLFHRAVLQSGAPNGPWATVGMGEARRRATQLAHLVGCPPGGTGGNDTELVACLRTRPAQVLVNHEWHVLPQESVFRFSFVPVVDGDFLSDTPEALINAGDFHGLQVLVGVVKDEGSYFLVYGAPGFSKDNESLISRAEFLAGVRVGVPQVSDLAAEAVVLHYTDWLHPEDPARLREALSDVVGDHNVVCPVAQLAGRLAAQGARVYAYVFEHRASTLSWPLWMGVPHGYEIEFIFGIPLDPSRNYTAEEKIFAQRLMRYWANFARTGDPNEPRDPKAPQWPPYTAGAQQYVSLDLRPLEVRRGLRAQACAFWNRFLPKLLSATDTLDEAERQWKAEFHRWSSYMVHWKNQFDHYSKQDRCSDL
T1 sequence (P81908 whole entry): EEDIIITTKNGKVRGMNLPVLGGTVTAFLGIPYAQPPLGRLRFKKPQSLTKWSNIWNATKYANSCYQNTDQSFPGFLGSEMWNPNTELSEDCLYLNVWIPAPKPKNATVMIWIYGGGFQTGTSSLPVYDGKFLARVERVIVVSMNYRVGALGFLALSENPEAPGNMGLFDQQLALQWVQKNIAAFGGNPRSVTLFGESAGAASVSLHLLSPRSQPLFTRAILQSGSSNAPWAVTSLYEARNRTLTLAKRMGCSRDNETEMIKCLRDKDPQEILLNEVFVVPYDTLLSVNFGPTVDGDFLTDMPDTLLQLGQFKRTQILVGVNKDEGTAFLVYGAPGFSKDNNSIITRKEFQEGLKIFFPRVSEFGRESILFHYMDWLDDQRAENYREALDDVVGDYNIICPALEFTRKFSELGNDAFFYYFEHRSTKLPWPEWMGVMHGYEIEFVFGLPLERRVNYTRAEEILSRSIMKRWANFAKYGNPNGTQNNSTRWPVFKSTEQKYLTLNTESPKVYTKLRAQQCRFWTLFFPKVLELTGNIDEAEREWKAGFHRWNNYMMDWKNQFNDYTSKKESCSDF

`CCC(CCC(C)CCOC(C)=O)COC(=O)c1ccccc1C(=O)OCC(CC)CCC(C)CCOC(C)=O` (stereo not shown) [Compound 3, Bis (7-acetoxy-2-ethyl-5-methylheptyl) phthalate]: the IC50 (usually the point on the concentration scale where inhibition reaches its midpoint) in experiment [1] (setting [3]) is 5.98 ± 0.079 µM; in experiment [2] (setting [4]) it was 1.65 ± 0.03 µM.

Turning to `CCOc1c(CC=C(C)C)cc(C(=O)OCC(C)(C)C)cc1CC=C(C)C` [Compound 4, Neopentyl-4-ethoxy-3,5-bis [3-methyl-2-butenyl] benzoate], the half-maximal inhibitory concentration (IC50) in experiment [1] (setting [3]) is 14.76 ± 0.087 µM; in experiment [2] (setting [4]), 5.27 ± 0.04 µM. Besides, the “BChE inhibition profile (in words)” value in experiment [1] is “weak inhibition profile”. The “AChE inhibition profile (in words)” value in experiment [2] was “weak inhibition profile”.

For `CC(C)=CCc1cc(C(=O)OCC(C)(C)C)cc(CC=C(C)C)c1O` [Compound 5, Neopentyl-4-hydroxy-3,5-bis [3-methyl-2-butenyl] benzoate], the concentration for half-maximal inhibition (IC50) in experiment [1] (setting [3]) turned out to be 9.84 ± 0.037 µM; in experiment [2] (setting [4]), 3.43 ± 0.02 µM.

With `CCCCCCCCOC(=O)c1ccccc1C(=O)OCCCCCCCC` [Compound 2, dioctyl phthalate], the values for the concentration for half-maximal inhibition (IC50) in experiment [1] and in experiment [2] (setting [4]) were 20.12 ± 0.079 µM and 8.74 ± 0.07 µM, respectively. The “BChE inhibition profile (in words)” value in experiment [1] is given as “weak inhibition profile”. Moreover, the “AChE inhibition profile (in words)” value in experiment [2] is “weak inhibition profile”.

Turning to `CCCCC(CC)COC(=O)c1ccccc1C(=O)OCC(CC)CCCC` (stereo not shown) [Compound 1, bis (2-ethylhexyl phthalate], the “BChE ± SEM (IC50)” value in experiment [1] (butyrylthiocholine chloride substrate, DTNB, pH 8.0, 25°C, 412 nm, value ± SEM) is “Nil”. In experiment [1], the “BChE inhibition profile (in words)” value is “inactive”. Moreover, the “AChE ± SEM (IC50)” value in experiment [2] (setting [4]) is listed as “Nil”. Moreover, the “AChE inhibition profile (in words)” value in experiment [2] was “inactive”.
